Experimental data reported in ChEMBL document CHEMBL6127081, “Peptide inhibitors targeting Ras and Ras-associated protein-protein interactions” (Eur J Med Chem, 2024).
pIC50, pKd: −log10 of the molar value. Values belong to the molecule of their own block, whether it stands above or below them. Where a SMILES comes first, the peptide text is derived from it. Bridges are numbered along the chain shown (N, C = ends). [ ]: non-standard residue; d: D form. The star is where a group is joined. hPhe(3,5-F2-4-CF3) = N[C@@H](CCc1cc(F)c(C(F)(F)F)c(F)c1)C(=O)O; hPhe(3-Cl-4-CF3) = N[C@@H](CCc1ccc(C(F)(F)F)c(Cl)c1)C(=O)O; hPhe(4-CF3) = N[C@@H](CCc1ccc(C(F)(F)F)cc1)C(=O)O; NEtPhe(4-Me) = CCN[C@@H](Cc1ccc(C)cc1)C(=O)O; NMePhe(4-Cl) = CN[C@@H](Cc1ccc(Cl)cc1)C(=O)O; NMeGly(cPent) = CN[C@H](C(=O)O)C1CCCC1; Phe(4-F) = N[C@@H](Cc1ccc(F)cc1)C(=O)O; 2Nal = N[C@@H](Cc1ccc2ccccc2c1)C(=O)O; NMeCha = CN[C@@H](CC1CCCCC1)C(=O)O; NMeF = CN[C@@H](Cc1ccccc1)C(=O)O; NMeD = CN[C@@H](CC(=O)O)C(=O)O; NMeL = CN[C@@H](CC(C)C)C(=O)O; NMeV = CN[C@H](C(=O)O)C(C)C; NMeA = CN[C@@H](C)C(=O)O; Nle = CCCC[C@H](N)C(=O)O; Pyrrolidide = C1CCN(*)C1; Ac5c = NC1(C(=O)O)CCCC1; Aze = O=C(O)[C@@H]1CCN1; β3hA = C[C@H](N)CC(=O)O; Sar = CNCC(=O)O

Assays:
[1] = biological target: GTPase KRas (Homo sapiens, UniProt P01116); assay: Inhibition of KRas (unknown origin)
GTPase KRas (Homo sapiens, UniProt P01116), sequence (P01116 whole entry): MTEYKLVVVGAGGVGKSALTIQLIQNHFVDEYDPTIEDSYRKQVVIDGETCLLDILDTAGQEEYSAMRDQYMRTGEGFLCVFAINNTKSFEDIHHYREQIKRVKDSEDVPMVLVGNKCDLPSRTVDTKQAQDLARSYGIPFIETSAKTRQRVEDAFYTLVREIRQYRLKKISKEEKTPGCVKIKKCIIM

[2] = biological target: GTPase KRas/RAF1 (Homo sapiens, UniProt P01116); assay: Inhibition of KRAS/RAF interaction (unknown origin) by HTRF assay; assay type: protein assay
GTPase KRas/RAF1, sequence (P04049 whole entry): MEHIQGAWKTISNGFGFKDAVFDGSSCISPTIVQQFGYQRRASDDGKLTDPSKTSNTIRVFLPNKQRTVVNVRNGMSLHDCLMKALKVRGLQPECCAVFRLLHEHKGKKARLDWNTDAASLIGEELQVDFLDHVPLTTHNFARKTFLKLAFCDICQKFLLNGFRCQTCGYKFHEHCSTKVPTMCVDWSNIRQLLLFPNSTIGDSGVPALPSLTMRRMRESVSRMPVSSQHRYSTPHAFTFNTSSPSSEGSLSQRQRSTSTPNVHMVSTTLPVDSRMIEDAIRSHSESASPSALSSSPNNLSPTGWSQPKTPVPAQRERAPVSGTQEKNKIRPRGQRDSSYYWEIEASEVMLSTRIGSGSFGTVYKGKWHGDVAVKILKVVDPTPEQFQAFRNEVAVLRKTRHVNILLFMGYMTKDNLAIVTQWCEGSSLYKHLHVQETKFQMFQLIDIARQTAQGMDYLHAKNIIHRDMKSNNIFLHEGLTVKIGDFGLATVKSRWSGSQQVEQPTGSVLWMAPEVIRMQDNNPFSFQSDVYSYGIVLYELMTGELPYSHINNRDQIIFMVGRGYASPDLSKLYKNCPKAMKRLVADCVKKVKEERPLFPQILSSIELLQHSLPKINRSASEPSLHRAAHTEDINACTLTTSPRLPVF
GTPase KRas/RAF1, sequence (P01116 whole entry): as the sequence (P01116 whole entry) above

[3] = biological target: SOS1-KRAS (Homo sapiens, UniProt P01116, G12D); assay: Inhibition of KRAS G12D mutant/SOS1 (unknown origin) interaction by TR-FRET assay; assay type: protein-complex assay
SOS1-KRAS, sequence (P01116 whole entry G12D, looked up): as the sequence (P01116 whole entry) above, with G12D counted along it

[4] = biological target: T1, GTPase KRas (Homo sapiens, UniProt P01116, G12D); assay: Binding affinity to KRas G12D mutant (unknown origin) assessed as dissociation constant by SPR analysis
T1 sequence (P01116 whole entry G12D): as the sequence (P01116 whole entry) above, with G12D counted along it

[5] = biological target: T1, GTPase KRas; assay: Inhibition of KRas G12D mutant (unknown origin) by TR-FRET assay

Compound: CC(C)C[C@H](NC(=O)C1CCCOCc2cnnn2CCC(=O)NCC(=O)N2CCCC[C@H]2C(=O)N[C@@H](Cc2cccc3ccccc23)C(=O)N1)C(N)=O (stereo partly specified)
- pIC50 [1]: 5.11

Compound: CC[C@H](C)[C@@H]1NC(=O)[C@H](Cc2ccc(O)cc2)NC(=O)[C@H](CC(C)C)NC(=O)[C@@H]2CCCN2C(=O)[C@@H](NC(=O)[C@H](CCCNC(=N)N)NC(=O)[C@H](CCCNC(=N)N)NC(C)=O)CSSC[C@@H](C(=O)N[C@@H](CCCNC(=N)N)C(=O)N[C@@H](CCCNC(=N)N)C(N)=O)NC(=O)[C@H](C(C)C)NC(=O)[C@@H]2CCCN2C(=O)[C@H](CC(=O)O)NC(=O)[C@H](Cc2ccc(O)cc2)NC(=O)[C@H](CO)NC1=O (Ac-RRCPLYISYDPVCRR-NH2; disulfide 3-13)
- pKd [4]: 7.29
- pIC50 [5]: 8.05

Compound: CC[C@H](C)[C@@H]1NC(=O)[C@H](CC(C)C)N(C)C(=O)C[C@@H](C(=O)N(C)C)N(C)C(=O)[C@H](C2CCCC2)N(C)C(=O)C2(CCCC2)NC(=O)[C@@H]2CCCN2C(=O)[C@H](CCc2cc(F)c(C(F)(F)F)c(F)c2)NC(=O)CN(C)C(=O)[C@H](Cc2ccc(C)cc2)N(CC)C(=O)[C@@H]2CCN2C(=O)[C@H](C)N(C)C1=O ([NMeL]I[NMeA][Aze][NEtPhe(4-Me)][Sar][hPhe(3,5-F2-4-CF3)]P[Ac5c][NMeGly(cPent)][NMeD]-NMe2; lactam N-11)
- pIC50 [3]: > 8.70

Compound: CCCC[C@@H]1NC(=O)[C@H](Cc2ccc(F)cc2)NC(=O)[C@H](CCCNC(=N)N)NC(=O)[C@H](Cc2ccc3ccccc3c2)NC(=O)[C@H](CCCNC(=N)N)NC(=O)[C@H](CCCNC(=N)N)NC(=O)[C@H](CCC(N)=O)NC(=O)[C@H](C)NC(=O)[C@H]([C@@H](C)O)NC(=O)[C@H](Cc2c[nH]c3ccccc23)NC(=O)[C@H](CO)NC1=O (cyclo([2Nal]R[Phe(4-F)][Nle]SWTAQRR))
- pIC50 [2]: 6.19

Compound: CC(C)C[C@H](NC(=O)C1CCCOCc2cnnn2CCC(=O)NCC(=O)N2CCC[C@H]2C(=O)N[C@@H](Cc2cccc3ccccc23)C(=O)N1)C(N)=O (stereo partly specified)
- pIC50 [1]: 5.15

Compound: CC[C@H](C)[C@@H]1NC(=O)[C@H](CC(C)C)N(C)C(=O)C[C@H](C)NC(=O)[C@H](C(C)C)N(C)C(=O)C2(CCCC2)NC(=O)[C@@H]2CCCN2C(=O)[C@H](CCc2ccc(C(F)(F)F)c(Cl)c2)NC(=O)CN(C)C(=O)[C@H](CC2CCCCC2)N(C)C(=O)[C@@H]2CCN2C(=O)[C@H](C)N(C)C1=O (cyclo([Ac5c][NMeV][β3hA][NMeL]I[NMeA][Aze][NMeCha][Sar][hPhe(3-Cl-4-CF3)]P))
- pIC50 [3]: 7.62

Other lines, results leading:

- pIC50 [2]: 6.92
Compound: CCCC[C@@H]1NC(=O)[C@H](Cc2ccc(F)cc2)NC(=O)[C@H](CCCNC(=N)N)NC(=O)[C@H](Cc2ccc3ccccc3c2)NC(=O)[C@H](CCCNC(=N)N)NC(=O)[C@H](CCCNC(=N)N)NC(=O)[C@H](CCCNC(=N)N)NC(=O)[C@H](C)NC(=O)[C@H]([C@@H](C)O)NC(=O)[C@H](Cc2c[nH]c3ccccc23)NC(=O)[C@H](CCC(N)=O)NC1=O (cyclo([2Nal]R[Phe(4-F)][Nle]QWTARRR))

- pIC50 [3]: 7.44
Compound: CC[C@H](C)[C@H](NC(=O)CNC(=O)[C@H](Cc1ccccc1)NC(=O)[C@H](Cc1ccccc1)NC(=O)[C@H](CCCNC(=N)N)NC(=O)[C@H](CCCNC(=N)N)NC(C)=O)C(=O)N[C@@]1(C)CCC/C=C\CCC[C@@](C)(C(=O)N[C@@H](CC(C)C)C(=O)N[C@@H](CCCCN)C(=O)N[C@H](C(=O)N[C@@H](CCC(=O)O)C(=O)N[C@@H](CCC(=O)O)C(=O)NCC(=O)N[C@@H](CC(N)=O)C(N)=O)[C@@H](C)O)NC(=O)[C@@H](CC(N)=O)NC(=O)[C@H]([C@@H](C)O)NC(=O)[C@@H](CC(C)C)NC1=O

- pIC50 [3]: 7.74
Compound: CC[C@H](C)[C@@H]1NC(=O)[C@H](C)N(C)C(=O)C[C@@H](C(=O)N2CCCC2)NC(=O)[C@H](CC(C)C)N(C)C(=O)[C@H](Cc2ccccc2)N(C)C(=O)[C@H](CC(C)C)NC(=O)[C@H](CCc2ccc(C(F)(F)F)cc2)NC(=O)CN(C)C(=O)[C@H](Cc2ccc(Cl)cc2)N(C)C(=O)CN(C)C1=O ([NMeA]I[Sar][NMePhe(4-Cl)][Sar][hPhe(4-CF3)]L[NMeF][NMeL]D-Pyrrolidide; lactam N-10)

- pIC50 [3]: 6.92
Compound: C[C@@H](NC(=O)[C@H](Cc1ccccc1)NC(=O)[C@@H](CCCNC(=N)N)NC(=O)[C@H](CCCN)NC(=O)[C@@H]1CNC(=O)c2cc3cc(c2)C(=O)N[C@H](Cc2ccc4ccccc4c2)C(=O)N[C@@H](CO)C(=O)N[C@@H](CC(N)=O)C(=O)N[C@H](Cc2ccc4ccccc4c2)C(=O)N[C@@H](c2ccccc2)C(=O)N[C@@H](CCCCNC3=O)C(=O)N[C@H](Cc2ccccc2)C(=O)N[C@@H](CCC(N)=O)C(=O)N[C@H](CCCNC(=N)N)C(=O)CN[C@@H](CCCNC(=N)N)C(=O)N1)C(N)=O
